Here are results for 21 compounds from patent US20250304571A1, “BIOLOGICALLY ACTIVE COMPOUNDS AND METHODS THEREOF” (Suzhou Keen Therapeutics Co., Ltd., priority 2022, published 2025).

The test system of this experiment is 786-O (renal cell carcinoma) cells. The experiment is described as follows: Cell viability (CellTiter Glo) assay, inhibition of 786-O cell proliferation. The class given is cell-based. As to conditions: Homo sapiens, 786-0; 786-O cells, 72 hours, CellTiter Glo; read-out: IC50, inhibition of 786-O cell proliferation. For orientation: In ATP-based viability assays light output follows the ATP content of the culture.

As to `N=C(OCc1nc(NC2CC2)c2c(n1)N(c1cnc(N3CCCCC3)nc1)C(=O)C21CCCC1)N1CCC[C@@H]1C(F)(F)F` [Compound E204], the IC50 is < 100 nM. On to `CC(C)N(CC(F)(F)F)C(=N)OCc1ncc2c(n1)N(c1cccc(OC3CCOCC3)c1)CC21CC1` [Compound E144], for which the IC50 was in the range of 500 to 5000 nM. The same measure for `C[C@@H]1CN(c2ccc(N3CC(C)(C)c4c(N)nc(COC(=N)N5CCC[C@@H]5C(F)(F)F)nc43)cn2)C[C@H](C)O1` [Compound E20]: < 100 nM; for `CC(C)N(CC(F)(F)F)C(=N)OCc1ncc2c(n1)N(c1ccc(N3CCOCC3)nc1)C(=O)C21CC1` [Compound E149]: 500 to 5000 nM; for `CNc1nc(COC(=N)N2CCC[C@@H]2C(F)(F)F)nc2c1C(C)(C)C(=O)N2c1ccc(N2C[C@H](C)C[C@H](C)C2)c(F)c1` [Compound E39]: < 100 nM.

On to `COc1cc(N2CCOCC2)ccc1N1CC(C)(C)c2c(N)nc(COC(=N)N3CCC[C@@H]3C(F)(F)F)nc21` [Compound E77], for which the IC50 was < 100 nM.

Consider `CC1(C)C(=O)N(c2ccc(N3CCOCC3)cc2)c2nc(COC(=N)N3CCC[C@@H]3C(F)(F)F)nc(N)c21` [Compound E117], for which the IC50 is < 100 nM.

Regarding `C[C@@H]1CN(c2ccc(N3C(=O)C4(CCCC4)c4c(N)nc(COC(=N)N5CCC[C@@H]5C(F)(F)F)nc43)cc2F)C[C@H](C)O1` [Compound E214], the IC50 was < 100 nM. Take `CC1(C)C(=O)N(c2ccc(N3CCOCC3)cc2)c2nc(COC(=N)N3CCC[C@@H]3C(F)(F)F)nc(N3CC(F)(F)C3)c21` [Compound E74]: the IC50 lay in the range of 100 to 500 nM. The figure for `C[C@@H]1CN(c2ccc(N3C(=O)C4(CCC4)c4c(N)nc(COC(=N)N5CCC[C@@H]5C(F)(F)F)nc43)cn2)C[C@H](C)O1` [Compound E33] is < 100 nM; for `CC(C)N(CC(F)(F)F)C(=N)OCc1nc(Cl)c2c(n1)N(c1ccc(OC3CCCCC3)nc1)C(=O)C2(C)C` [Compound E158, (4-chloro-7-(6-(cyclohexyloxy)pyridin-3-yl)-5,5-dimethyl-6-oxo-6,7-dihydro-5H-pyrrolo[2,3-d]pyrimidin-2-yl)methyl isopropyl(2,2,2-trifluoroethyl)carbamimidate] it is 500 to 5000 nM; for `CNc1nc(COC(=N)N2CCCCC2C(F)(F)F)nc2c(-c3ccc(N4CCOCC4)cc3OC)csc12` (stereo not drawn) [Compound E171] it is < 100 nM. On to `C[C@@H]1CN(c2ncc(N3C(=O)C4(CCCC4)c4c(N)nc(COC(=N)N5CCOC[C@H]5C(F)(F)F)nc43)cn2)C[C@H](C)O1` [Compound E104A], for which the IC50 fell in the range of 100 to 500 nM. Regarding `CC(C)N(CC(F)(F)F)C(=N)OCc1ncc2c(n1)N(c1ccc(OC3CCCCC3)nc1)C(=O)C21CC1` [Compound E13], the IC50 was in the range of 100 to 500 nM. Regarding `CCN(CC(F)(F)F)C(=N)OCc1nc(NC)c2c(n1)N(c1ccc(N3CCOCC3)cc1)C(=O)C2(C)C` [Compound E109], the IC50 was < 100 nM. The same measure for `CC(C)N(CC(F)(F)F)C(=N)OCc1ncc(C2CCCCO2)c(Nc2ccc(N3CCOCC3)nc2)n1` (stereo not drawn) [Compound E156, (4-((6-morpholinopyridin-3-yl)amino)-5-(tetrahydro-2H-pyran-2-yl)pyrimidin-2-yl)methyl isopropyl]: 500 to 5000 nM; for `CC1(C)C(=O)N(c2ccc(N3CCOCC3)cc2)c2nc(COC(=N)N3CCCC3C(F)(F)F)nc(N)c21` (stereo not drawn) [Compound E170]: < 100 nM. Turning to `CC(C)N(CC(F)(F)F)C(=N)OCc1ncc2c(n1)N(c1ccc(C3CCCCC3)cc1)C(=O)C21CC1` [Compound E159], the IC50 was in the range of 100 to 500 nM.

Turning to `N=C(OCc1nc(N)c2c(n1)N(c1cnc(N3CCOCC3)nc1)C(=O)C21CCCC1)N1CCC[C@@H]1C(F)(F)F` [Compound E78], the IC50 was < 100 nM. As to `CCN(CC)c1ncc(N2C(=O)C3(CCCC3)c3c(NC(C)C)nc(COC(=N)N4CCC[C@@H]4C(F)(F)F)nc32)cn1` [Compound E76], the IC50 is 100 to 500 nM.

Turning to `N=C(OCc1nc(NC2CC2)c2c(n1)N(c1cnc(N3CCOCC3)nc1)C(=O)C21CCCC1)N1CCC[C@@H]1C(F)(F)F` [Compound E111], the IC50 was < 100 nM.
